This passage reports TGI and GI50 results from PubChem BioAssay (NCI).

The structures appear in SMILES notation.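 Values below derive from 48-hour exposures of cells grown in 96-well plates, with endpoints linearly interpolated between the two concentrations bracketing the appropriate inhibition level. Abbreviation: GI50, concentration required for 50% inhibition of growth. At the TGI there is no net growth.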

Test systems include BT-549 breast; MDA-MB-231 breast; IGROV1 ovarian; A498 renal; HT29 colon; HS 578T breast; SF-268 CNS; HL-60(TB) leukemia; MDA-MB-435; SNB-19 CNS.
Assay in all cases: NCI anticancer screen, dose series, 48 h

Take `C[C@]1(CO)[C@H]2CC[C@@]34C=C[C@@](CO)(CC[C@H]3[C@]2(C)CC[C@H]1O)C4`: the TGI with BT-549 breast, in the experiment on MDA-MB-231 breast, in the experiment with IGROV1 ovarian, in the experiment with A498 renal, in the experiment on HT29 colon and with HS 578T breast was greater than 100 µM throughout. In addition, the TGI in the experiment on SF-268 CNS, with HL-60(TB) leukemia, in the experiment on MDA-MB-435 and in the experiment with SNB-19 CNS was greater than 100 µM throughout.

Consider `COC(=O)c1sc(C(=O)OC)c2c1CSC2`, for which the TGI with BT-549 breast, in the experiment on MDA-MB-231 breast, with IGROV1 ovarian, in the experiment on A498 renal, in the experiment on HT29 colon and in the experiment on HS 578T breast was greater than 100 µM in each case. The TGI with SF-268 CNS was greater than 100 µM; in the experiment on HL-60(TB) leukemia, greater than 100 µM; in the experiment on MDA-MB-435, greater than 100 µM; with SNB-19 CNS, greater than 85.8 µM.

On to `O=C(c1ccc2ncc(-c3nc(NC4CC4)ncc3F)n2c1)N1CCOCC1`, for which the GI50 in the experiment on BT-549 breast is 1.58 µM; with MDA-MB-231 breast it was 2.4 µM; with IGROV1 ovarian it was 2.42 µM; in the experiment on A498 renal, 1.63 µM; in the experiment on HT29 colon, 2.22 µM; in the experiment on HS 578T breast it was 2.21 µM. Moreover, the GI50 with SF-268 CNS is 2.53 µM; in the experiment on HL-60(TB) leukemia, 1.97 µM; in the experiment with MDA-MB-435, 3.11 µM. Moreover, the TGI in the experiment on BT-549 breast worked out at 5.29 µM; in the experiment with MDA-MB-231 breast, 8.98 µM; with IGROV1 ovarian it was 12.2 µM; in the experiment on A498 renal, 3.82 µM; in the experiment on HT29 colon, 13.1 µM; with HS 578T breast, 8.04 µM. Besides, the TGI in the experiment on SF-268 CNS was 7.12 µM; in the experiment with HL-60(TB) leukemia, 5.15 µM; in the experiment with MDA-MB-435 it was 14.4 µM.

In the case of `N#Cc1cnc2cc(OC[C@@H](O)CO)c(NC(=O)CC3CSSC3)cc2c1Nc1ccc(OCc2cccc(F)c2)c(Cl)c1`, the GI50 is 0.155 µM in the experiment on BT-549 breast; 0.104 µM with MDA-MB-231 breast; 0.288 µM in the experiment on IGROV1 ovarian; 0.848 µM in the experiment on A498 renal; 0.225 µM with HT29 colon; 0.105 µM in the experiment with HS 578T breast. Moreover, the GI50 in the experiment with SF-268 CNS was 0.0814 µM; in the experiment on HL-60(TB) leukemia, 0.589 µM; in the experiment on MDA-MB-435 it was 0.113 µM; with SNB-19 CNS, 0.381 µM. In addition, the TGI is 0.523 µM in the experiment with BT-549 breast; 0.237 µM with MDA-MB-231 breast; 1.11 µM with IGROV1 ovarian; 1.92 µM with A498 renal; 0.759 µM in the experiment on HT29 colon; 0.282 µM with HS 578T breast. In addition, the TGI came to 0.771 µM in the experiment on SF-268 CNS, 1.47 µM in the experiment with HL-60(TB) leukemia, 0.303 µM in the experiment with MDA-MB-435 and 1.18 µM with SNB-19 CNS.

On to `Nc1ccc(S(=O)(=O)C23CC4CC(CC(C4)C2)C3)cc1`, for which the TGI in the experiment with BT-549 breast, with MDA-MB-231 breast, with IGROV1 ovarian, in the experiment on A498 renal, in the experiment on HT29 colon and in the experiment with HS 578T breast was greater than 100 µM in each case. Also, the TGI in the experiment on SF-268 CNS, in the experiment with HL-60(TB) leukemia, in the experiment with MDA-MB-435 and in the experiment on SNB-19 CNS was greater than 100 µM throughout.

As for `CCN1C(=S)N(CC)C2C1NC(=S)N2/N=C/C=C/c1ccccc1` (stereo not given), the GI50 was 5.44 µM in the experiment with BT-549 breast; 2.75 µM in the experiment on MDA-MB-231 breast; 2.15 µM in the experiment with IGROV1 ovarian; 0.641 µM in the experiment on A498 renal; 0.511 µM in the experiment on HT29 colon; 2.11 µM in the experiment with HS 578T breast. The GI50 with SF-268 CNS is 5.51 µM; in the experiment on HL-60(TB) leukemia, 0.387 µM; in the experiment on MDA-MB-435 it was 0.272 µM; in the experiment on SNB-19 CNS, 2.8 µM. Besides, the TGI with BT-549 breast is 21.7 µM; with MDA-MB-231 breast, 14.6 µM; in the experiment with IGROV1 ovarian, 16.3 µM; in the experiment on A498 renal it was 4.67 µM; in the experiment on HT29 colon it was 12.1 µM; in the experiment with HS 578T breast, 8.96 µM. Also, the TGI with SF-268 CNS stood at 27.2 µM; in the experiment with HL-60(TB) leukemia, 1.79 µM; in the experiment with MDA-MB-435, 0.856 µM; in the experiment on SNB-19 CNS it was 20.2 µM.

Regarding `CN(C)CCCN1c2nc3ccccc3cc2Sc2cc3ccccc3nc21`, the GI50 in the experiment with BT-549 breast was 1.42 µM; with MDA-MB-231 breast, 1.41 µM; with A498 renal, 1.57 µM; in the experiment on HT29 colon, 1.18 µM; in the experiment with HS 578T breast it was 1.37 µM; with SF-268 CNS it was 1.59 µM. In addition, the GI50 is 1.34 µM with HL-60(TB) leukemia, 1.51 µM in the experiment on MDA-MB-435 and 1.69 µM with SNB-19 CNS. The TGI in the experiment with BT-549 breast was 2.84 µM; in the experiment on MDA-MB-231 breast, 2.75 µM; in the experiment on A498 renal, 2.96 µM; in the experiment on HT29 colon it was 5.1 µM; in the experiment with HS 578T breast, 2.91 µM; in the experiment on SF-268 CNS it was 3 µM. Further, the TGI with HL-60(TB) leukemia turned out to be 2.79 µM; in the experiment on MDA-MB-435 it was 2.96 µM; with SNB-19 CNS, 3.13 µM.

On to `Cc1nc2ccc(Nc3nc(NCCN4CCOCC4)nc(Nc4ccc(F)cc4)n3)cc2n1Cc1ccccc1`, for which the GI50 in the experiment on BT-549 breast is 2.13 µM; in the experiment with MDA-MB-231 breast, 1.71 µM; in the experiment on IGROV1 ovarian, 5.59 µM; with A498 renal it was 1.35 µM; with HS 578T breast it was 1.87 µM; in the experiment on SF-268 CNS it was 5.82 µM. Moreover, the GI50 with HL-60(TB) leukemia is 1.82 µM; in the experiment on MDA-MB-435, 2.23 µM; with SNB-19 CNS, 3.07 µM. Moreover, the TGI in the experiment with BT-549 breast is 9.33 µM; with MDA-MB-231 breast, 3.71 µM; in the experiment on IGROV1 ovarian it was 46 µM; in the experiment on A498 renal, 5.13 µM; in the experiment with HS 578T breast it was 6.66 µM; in the experiment on SF-268 CNS, 33.9 µM. Moreover, the results for the TGI in the experiment on HL-60(TB) leukemia, with MDA-MB-435 and in the experiment with SNB-19 CNS were 4.72 µM, 6.25 µM and 15.2 µM, respectively.

Consider `NC1CCN(c2nc(Nc3cccc(C(F)(F)F)c3)c3c(=O)[nH]ccc3n2)CC1`, for which the GI50 with BT-549 breast was 1.59 µM; in the experiment on MDA-MB-231 breast, 2 µM; with A498 renal, 1.64 µM; with HT29 colon, 1.17 µM; with HS 578T breast, 1.64 µM; with HL-60(TB) leukemia, 0.603 µM. The GI50 in the experiment with MDA-MB-435 was 1.09 µM; in the experiment with SNB-19 CNS, 2 µM. The TGI turned out to be 3 µM in the experiment with BT-549 breast; 3.6 µM in the experiment on MDA-MB-231 breast; 3.14 µM in the experiment with A498 renal; 4.89 µM with HT29 colon; 4.26 µM in the experiment on HS 578T breast; 2.41 µM with HL-60(TB) leukemia. Moreover, the TGI came to 2.42 µM in the experiment with MDA-MB-435 and 3.59 µM with SNB-19 CNS.
